A short description of one data set: Solubility in water. The class given is physicochemical.
For the next data set, the system named is phage. The data set is described as follows: Toxicity of hydrazines to phage, plaque forming assay. Details: species or system bacteriophage. The method, then: In the reaction between phage diketone and hydrazine, some hydrazine derivatives cause toxicity to phage, leading to elimination of >99.999% of infective phage particles in less than 5 minutes (as determined by plaque forming assay). For example, treating phage with 2 mM phenyl hydrazine for 2 minutes decreased the number of infective particles from 10^5 to zero. The source and mechanism of toxicity was not obvious and was difficult to systematize: it depended on the concentration of hydrazine and its nature, as well as some sporadic factors (preparation of solution). Toxicity dependence on concentration of hydrazine was not linear. In many cases, hydrazine was lethal to phage eliminating all infective particles before the reaction was completed. […] Optimal location conditions between phage-diketone and hydrazine derivatives are in the presence of 1-2 mM metal chelator such as EDTA.

Residues, ends and D or L forms follow the SMILES beside them.

As for `CC(C)[C@H](NC(=O)[C@H](CS)NC(=O)[C@H](CCC(N)=O)NC(=O)[C@@H](N)CO)C(=O)N[C@@H](CCCNC(=N)N)C(=O)N[C@@H](CO)C(=O)N[C@@H](CS)C(=O)O` [SQCVRSC] (H-SQCVRSC-OH; N-terminus and C-terminus assumed), the solubility in water entry in the data set “Solubility in water” is reported as “high”. For the molecule `NNc1ccccc1` [phenyl hydrazine], the “decrease in the number of infective particles” value with phage (2 to 20 mM phenyl hydrazine in the presence of 1 to 2 mM EDTA, several hours) is “did not show any significant decrease”. Moreover, the “number of infective particles after treatment” value in the data set with phage (phage treated with 2 mM phenyl hydrazine for 2 minutes, starting number 10^5, no chelator) is on record as “zero”.

(Values after US12416101B2, “Genetically-encoded macrocyclic peptide libraries bearing a pharmacophore” (THE GOVERNORS OF THE UNIVERSITY OF ALBERTA, priority 2018, dated 2025).)
